Holding throughout (assay type): functional
Experiment [1] has as its system Klebsiella pneumoniae. The experiment can be described thus: Antimicrobial activity against Klebsiella pneumoniae assessed as resistant isolate by broth microdilution method. For orientation: Broth dilution looks for growth in wells or tubes with falling amounts of substance.
The test system of experiment [2] is Pseudomonas aeruginosa. Nature of the experiment: Antimicrobial activity against Ceftazidime non-susceptible Pseudomonas aeruginosa assessed as intermediate isolate by broth microdilution method in presence of tazobactam.
For experiment [3], the system named is Enterobacter cloacae. The experiment can be described thus: Antimicrobial activity against Enterobacter cloacae with derepressed AmpC beta-lactamsae assessed as susceptible isolate by broth microdilution method in presence of Tazobactam.
Experiment [4] relates to Pseudomonas aeruginosa. Nature of the experiment: Antimicrobial activity against imipenem susceptible Pseudomonas aeruginosa assessed as susceptible isolate by broth microdilution method in presence of Tazobactam.
Experiment [5] relates to Enterobacteriaceae. Nature of the experiment: Antimicrobial activity against Ceftazidime non-susceptible Enterobacteriaceae assessed as resistant isolate by broth microdilution method in presence of tazobactam.
Experiment [6] concerns Klebsiella pneumoniae. Nature of the experiment: Antimicrobial activity against Non-ESBL Klebsiella pneumoniae assessed as intermediate isolate by broth microdilution method in presence of Tazobactam.
Experiment [7] concerns Pseudomonas aeruginosa. The experiment can be described thus: Antimicrobial activity against Pseudomonas aeruginosa isolated from ICU patient assessed as intermediate isolate by broth microdilution method.
Experiment [8] relates to Pseudomonas aeruginosa. Nature of the experiment: Antimicrobial activity against Ceftazidime susceptible Pseudomonas aeruginosa assessed as intermediate isolate by broth microdilution method in presence of tazobactam.
Experiment [9] has as its system Acinetobacter. The experiment can be described thus: Antimicrobial activity against imipenem susceptible Acinetobacter assessed as intermediate isolate by broth microdilution method in presence of Tazobactam.
Experiment [10] concerns Pseudomonas aeruginosa. The experiment can be described thus: Antimicrobial activity against ceftazidime susceptible Pseudomonas aeruginosa assessed as susceptible isolate by broth microdilution method in presence of Tazobactam.
In experiment [11] the test system is Acinetobacter. The experiment can be described thus: Antimicrobial activity against imipenem non-susceptible Acinetobacter by broth microdilution method in presence of Tazobactam.
Experiment [12] concerns Pseudomonas aeruginosa. Nature of the experiment: Antimicrobial activity against Ceftazidime non-susceptible Pseudomonas aeruginosa assessed as resistant isolate by broth microdilution method in presence of tazobactam.
Experiment [13] has as its system Escherichia coli. Nature of the experiment: Antimicrobial activity against ESBL producing Escherichia coli by broth microdilution method in presence of Tazobactam.
The subject of experiment [14] is Enterobacter cloacae. Nature of the experiment: Antimicrobial activity against Enterobacter cloacae with derepressed AmpC beta-lactamsae by broth microdilution method in presence of Tazobactam.
The subject of experiment [15] is Citrobacter. The experiment can be described thus: Antimicrobial activity against Citrobacter with nonderepressed AmpC beta-lactamsae assessed as resistant isolate by broth microdilution method in presence of Tazobactam.
The subject of experiment [16] is Proteus mirabilis. Nature of the experiment: Antimicrobial activity against Non-ESBL Proteus mirabilis by broth microdilution method in presence of Tazobactam.
In experiment [17] the test system is Citrobacter. Nature of the experiment: Antimicrobial activity against Citrobacter with nonderepressed AmpC beta-lactamsae assessed as susceptible isolate by broth microdilution method in presence of Tazobactam.
Experiment [18] has as its system Pseudomonas aeruginosa. Nature of the experiment: Antimicrobial activity against Pseudomonas aeruginosa isolated from ICU patient assessed as susceptible isolate by broth microdilution method in presence of Tazobactam.
The subject of experiment [19] is Acinetobacter. Nature of the experiment: Antimicrobial activity against imipenem susceptible Acinetobacter assessed as susceptible isolate by broth microdilution method in presence of Tazobactam.
The test system of experiment [20] is Serratia marcescens. The experiment can be described thus: Antimicrobial activity against Ceftazidime susceptible Serratia marcescens assessed as resistant isolate by broth microdilution method in presence of tazobactam.
Experiment [21] has as its system Enterobacteriaceae. The experiment can be described thus: Antimicrobial activity against ceftazidime-susceptible Enterobacteriaceae assessed as susceptible isolate by broth microdilution method in presence of Tazobactam.
Experiment [22] deals with Enterobacter cloacae. Nature of the experiment: Antimicrobial activity against Enterobacter cloacae with derepressed AmpC beta-lactamsae assessed as intermediate isolate by broth microdilution method in presence of Tazobactam.
Experiment [23] concerns Pseudomonas aeruginosa. The experiment can be described thus: Antimicrobial activity against Pseudomonas aeruginosa isolated from ICU patient assessed as resistant isolate by broth microdilution method.
The subject of experiment [24] is Pseudomonas aeruginosa. The experiment can be described thus: Antimicrobial activity against imipenem susceptible Pseudomonas aeruginosa assessed as resistant isolate by broth microdilution method in presence of Tazobactam.
Experiment [25] relates to Citrobacter. The experiment can be described thus: Antimicrobial activity against Citrobacter with nonderepressed AmpC beta-lactamsae by broth microdilution method in presence of Tazobactam.
Experiment [26] relates to Pseudomonas aeruginosa. Nature of the experiment: Antimicrobial activity against ceftazidime non-susceptible Pseudomonas aeruginosa assessed as susceptible isolate by broth microdilution method in presence of Tazobactam.
Experiment [27] deals with Pseudomonas aeruginosa. Nature of the experiment: Antimicrobial activity against ceftazidime non-susceptible Pseudomonas aeruginosa by broth microdilution method in presence of Tazobactam.
Experiment [28] concerns Pseudomonas aeruginosa. The experiment can be described thus: Antimicrobial activity against imipenem non-susceptible Pseudomonas aeruginosa assessed as intermediate isolate by broth microdilution method in presence of Tazobactam.
In experiment [29] the test system is Pseudomonas aeruginosa. The experiment can be described thus: Antimicrobial activity against ceftazidime susceptible Pseudomonas aeruginosa assessed as resistant isolate by broth microdilution method in presence of Tazobactam.
Experiment [30] concerns Klebsiella pneumoniae. The experiment can be described thus: Antimicrobial activity against ESBL producing Klebsiella pneumoniae assessed as intermediate isolate by broth microdilution method in presence of Tazobactam.
Experiment [31] concerns Serratia marcescens. Nature of the experiment: Antimicrobial activity against ceftazidime non-susceptible Serratia marcescens assessed as susceptible isolate by broth microdilution method in presence of Tazobactam.
The test system of experiment [32] is Enterobacteriaceae. The experiment can be described thus: Antimicrobial activity against ceftazidime non-susceptible Enterobacteriaceae by broth microdilution method in presence of Tazobactam.
Experiment [33] concerns Pseudomonas aeruginosa. The experiment can be described thus: Antimicrobial activity against Pseudomonas aeruginosa isolated from ICU patient assessed as resistant isolate by broth microdilution method in presence of Tazobactam.
The test system of experiment [34] is Pseudomonas aeruginosa. The experiment can be described thus: Antimicrobial activity against Pseudomonas aeruginosa isolated from non-ICU patient assessed as resistant isolate by broth microdilution method in presence of Tazobactam.
The test system of experiment [35] is Klebsiella pneumoniae. Nature of the experiment: Antimicrobial activity against ESBL producing Klebsiella pneumoniae assessed as resistant isolate by broth microdilution method in presence of Tazobactam.
Experiment [36] deals with Enterobacter cloacae. Nature of the experiment: Antimicrobial activity against Enterobacter cloacae with nonderepressed AmpC beta-lactamsae assessed as susceptible isolate by broth microdilution method in presence of Tazobactam.
For experiment [37], the system named is Enterobacteriaceae. The experiment can be described thus: Antimicrobial activity against Ceftazidime non-susceptible Enterobacteriaceae assessed as intermediate isolate by broth microdilution method in presence of tazobactam.
Experiment [38] deals with Pseudomonas aeruginosa. Nature of the experiment: Antimicrobial activity against imipenem non-susceptible Pseudomonas aeruginosa by broth microdilution method in presence of Tazobactam.
The subject of experiment [39] is Acinetobacter. Nature of the experiment: Antimicrobial activity against imipenem non-susceptible Acinetobacter assessed as resistant isolate by broth microdilution method in presence of Tazobactam.
Experiment [40] deals with Escherichia coli. The experiment can be described thus: Antimicrobial activity against ESBL producing Escherichia coli assessed as resistant isolate by broth microdilution method in presence of Tazobactam.
For experiment [41], the system named is Escherichia coli. Nature of the experiment: Antimicrobial activity against Non-ESBL Escherichia coli assessed as intermediate isolate by broth microdilution method in presence of Tazobactam.
The test system of experiment [42] is Proteus mirabilis. Nature of the experiment: Antimicrobial activity against Proteus mirabilis assessed as resistant isolate by broth microdilution method.
Experiment [43] concerns Escherichia coli. Nature of the experiment: Antimicrobial activity against Non-ESBL Escherichia coli assessed as resistant isolate by broth microdilution method.
Experiment [44] relates to Pseudomonas aeruginosa. Nature of the experiment: Antimicrobial activity against imipenem susceptible Pseudomonas aeruginosa assessed as resistant isolate by broth microdilution method.
Experiment [45] deals with Enterobacter cloacae. The experiment can be described thus: Antimicrobial activity against Enterobacter cloacae with derepressed AmpC beta-lactamsae assessed as resistant isolate by broth microdilution method.
The test system of experiment [46] is Enterobacter cloacae. The experiment can be described thus: Antimicrobial activity against Enterobacter cloacae with nonderepressed AmpC beta-lactamsae assessed as resistant isolate by broth microdilution method.
Experiment [47] deals with Escherichia coli. The experiment can be described thus: Antimicrobial activity against ESBL producing Escherichia coli assessed as resistant isolate by broth microdilution method.
Experiment [48] relates to Citrobacter. The experiment can be described thus: Antimicrobial activity against Citrobacter with derepressed AmpC beta-lactamsae assessed as resistant isolate by broth microdilution method.

The results in this text go back to ChEMBL document CHEMBL1275550, “In vitro activity of doripenem, a carbapenem for the treatment of challenging infections caused by gram-negative bacteria, against recent clinical isolates from the United States” (2008).

By MIC50 is commonly meant an inhibitory concentration at the 50% level, which refers to growth in some studies and to a panel of isolates in others. The MIC90 is an inhibitory concentration at the 90% level, which refers to growth in some studies and to a panel of isolates in others.

As for `C[C@@H](O)[C@H]1C(=O)N2C(C(=O)O)=C(S[C@@H]3CN[C@H](C(=O)N(C)C)C3)[C@H](C)[C@H]12` [MEROPENEM], the Activity with Klebsiella pneumoniae [1] is listed as 0.3%.
Take `CCN1CCN(C(=O)N[C@@H](C(=O)N[C@@H]2C(=O)N3[C@@H]2SC(C)(C)[C@@H]3C(=O)O)c2ccccc2)C(=O)C1=O` [PIPERACILLIN]: the Activity with Pseudomonas aeruginosa [2] is 0%; with Enterobacter cloacae [3] it was 5.8%; in the experiment with Pseudomonas aeruginosa [4], 90.6%; in the experiment with Enterobacteriaceae [5] it was 63.8%; with Klebsiella pneumoniae [6], 2.4%; with Pseudomonas aeruginosa [8], 0%. The Activity with Acinetobacter [9] amounted to 18.1%; with Pseudomonas aeruginosa [10], 96.3%; in the experiment with Pseudomonas aeruginosa [12], 82.7%; with Citrobacter [15], 2.6%; with Citrobacter [17] it was 93.7%; with Pseudomonas aeruginosa [18] it was 78.4%. The Activity was found to be 52.1% in the experiment with Acinetobacter [19]; 1.9% with Serratia marcescens [20]; 95.8% with Enterobacteriaceae [21]; 11.7% with Enterobacter cloacae [22]; 9.4% in the experiment on Pseudomonas aeruginosa [24]; 17.3% in the experiment on Pseudomonas aeruginosa [26]. The Activity in the experiment on Pseudomonas aeruginosa [28] is listed as 0%; in the experiment with Pseudomonas aeruginosa [29], 3.7%; with Klebsiella pneumoniae [30], 11.4%; with Serratia marcescens [31], 20%; with Pseudomonas aeruginosa [33], 21.6%; with Pseudomonas aeruginosa [34], 13%. The Activity in the experiment on Klebsiella pneumoniae [35] came to 77.3%; with Enterobacter cloacae [36], 93.3%; in the experiment with Enterobacteriaceae [37] it was 20.6%; in the experiment on Acinetobacter [39], 96.1%; with Escherichia coli [40] it was 30%; in the experiment with Escherichia coli [41], 3.2%. Further, the MIC50 is 16 µg/mL with Pseudomonas aeruginosa [7]; greater than 128 µg/mL with Acinetobacter [11]; 16 µg/mL in the experiment with Escherichia coli [13]; greater than 128 µg/mL with Enterobacter cloacae [14]; 0.5 µg/mL in the experiment with Proteus mirabilis [16]; 16 µg/mL with Pseudomonas aeruginosa [23]. The MIC50 was 4 µg/mL with Citrobacter [25], greater than 128 µg/mL with Pseudomonas aeruginosa [27], 128 µg/mL in the experiment with Enterobacteriaceae [32] and 16 µg/mL in the experiment on Pseudomonas aeruginosa [38]. Moreover, the MIC90 in the experiment with Pseudomonas aeruginosa [7] is greater than 128 µg/mL; in the experiment on Acinetobacter [11] it was greater than 128 µg/mL; in the experiment on Escherichia coli [13] it was greater than 128 µg/mL; in the experiment on Enterobacter cloacae [14] it was greater than 128 µg/mL; in the experiment on Proteus mirabilis [16] it was 2 µg/mL; in the experiment on Citrobacter [25], 16 µg/mL. Further, the MIC90 in the experiment with Pseudomonas aeruginosa [27], in the experiment with Enterobacteriaceae [32] and in the experiment on Pseudomonas aeruginosa [38] was greater than 128 µg/mL each time.
In the case of `C[C@@H](O)[C@H]1C(=O)N2C(C(=O)O)=C(SCCNC=N)C[C@H]12` [IMIPENEM ANHYDROUS], in the experiment with Proteus mirabilis [42], the Activity is listed as 0.2%.
Take `CC(C)(O/N=C(\C(=O)N[C@@H]1C(=O)N2C(C(=O)[O-])=C(C[n+]3ccccc3)CS[C@H]12)c1csc(N)n1)C(=O)O` [CEFTAZIDIME]: the Activity is reported as 0.9% in the experiment with Escherichia coli [43]; 6.9% with Pseudomonas aeruginosa [44]; 97.1% in the experiment on Enterobacter cloacae [45]; 5.7% with Enterobacter cloacae [46]; 56.7% in the experiment with Escherichia coli [47]; 100% with Citrobacter [48].
